The record followed here is patent US20240358668A1, “METHODS AND CO[…] AM[…] CARD[…] USING (R)-2-AMINO-3-PH[…]” (AXSOME THERAPEUTICS, INC., priority 2021, published 2024).

For the series, the system named is participants with narcolepsy. Nature of the series: Study 14-002, 12-week randomized controlled trial: 24-hour ABPM at screening and week 8. Format: in vivo, human. Conditions: for effect on percentage of participants with a non-dipping BP profile: screening to week 8, any dose studied. The protocol: Solriamfetol is a dopamine and norepinephrine reuptake inhibitor indicated to improve wakefulness in adult patients with excessive daytime sleepiness associated with narcolepsy (75-150 mg/d) or obstructive sleep apnea (37.5-150 mg/d). Previous studies reported small mean increases in blood pressure (BP); however, the time course of these effects has not been evaluated. […] These analyses evaluated the effects of solriamfetol treatment on BP using 24-hour ambulatory blood pressure monitoring (ABPM) and on the percentage of narcolepsy patients with a non-dipping BP profile.
Twenty-four-hour ABPM was conducted at baseline and week 8 in a 12-week randomized controlled trial in participants with narcolepsy (n=236). Blood pressure was collected every 30 minutes.

As to `NC(=O)OC[C@H](N)Cc1ccccc1` [Solriamfetol, (R)-2-amino-3-phenylpropyl carbamate], the “effect on percentage of participants with a non-dipping BP profile” value is given as “not observed to have an increase”. Besides, where the note is “75 mg”, the “Mean Change in DBP on ABPM from Screening to Week 8, Mean (SD)” value (“Mean Change in DBP on ABPM … (SD)” for short) is 1.4 (5.13) mmHg; the “Mean Change in HR on ABPM from Screening to Week 8, Mean (SD)” value (from here on “Mean Change in HR on ABPM … (SD)”) is reported as 1.0 (7.95) bpm; the “Mean Change in SBP on ABPM from Screening to Week 8, Mean (SD)” value (shortened to “Mean Change in SBP on ABPM … (SD)”) is 1.8 (6.53) mmHg. Besides, under “75 mg, listed as solriamfetol”, the “Mean Change in DBP on ABPM … (SD)” value stood at 1.4 mmHg and the “Mean Change in SBP on ABPM … (SD)” value is 1.8 mmHg. For the setting “150 mg”, the “Mean Change in DBP on ABPM … (SD)” value is recorded as 0.4 (4.46) mmHg; the “Mean Change in HR on ABPM … (SD)” value is on record as 0.7 (7.12) bpm; the “Mean Change in SBP on ABPM … (SD)” value is −0.5 (5.51) mmHg. Where the note is “150 mg, listed as solriamfetol”, the “Mean Change in DBP on ABPM … (SD)” value worked out at 0.4 mmHg and the “Mean Change in SBP on ABPM … (SD)” value is −0.5 mmHg. Also, for the setting “300 mg”, the “Mean Change in DBP on ABPM … (SD)” value is 3.0 (4.97) mmHg; the “Mean Change in HR on ABPM … (SD)” value was 5.3 (7.55) bpm; the “Mean Change in SBP on ABPM … (SD)” value was 2.4 (5.97) mmHg. In addition, under “300 mg, listed as solriamfetol”, the “Mean Change in DBP on ABPM … (SD)” value worked out at 3.0 mmHg and the “Mean Change in SBP on ABPM … (SD)” value came to 2.4 mmHg. Besides, the “percentage of non-dippers (<10% decrease in MAP during sleep)” value (combined solriamfetol, week 8 (baseline 48%)) was 39%. The “time course of effects on BP (24-hour ABPM)” value (highest approved dose of 150 mg/d) is recorded as “transient across the day”. For the same molecule, the “effect on percentage of participants with a non-dipping BP profile” value (listed as solriamfetol) is on record as “did not increase”.
